According to US7097856B2, “Dendrimeric support or carrier macromolecule” (priority 2000, dated 2006):

System: complementary strand of DNA
Assay: Thermal denaturation of DNA-dendrimer conjugate hybridized with complementary strand
Type: binding

## native: unmodified single stranded DNA, sequence TTC TCT TCA GTT CAC A (5′ to 3′) (DNA TTCTCTTCAGTTCACA; unmodified DNA)
  Tm (thermal denaturation, melting temperature): 52.3 °C
